Source: patent US7550456B2, “Substituted aryl cycloalkanoyl derivatives and methods of their use” (Wyeth, priority 2003, dated 2009)
Counter-ions that a name gives are not always drawn.

molecular target: T1, human hNET (Homo sapiens, UniProt P23975); test: Norepinephrine (NE) uptake assay in MDCK-Net6 cells; format: cell-based; details: 1 μM test compound, [3H]NE uptake
T1 construct: expressed in transfected cells; host or cells: MDCK-Net6 (MDCK cells, stably transfected)
Experimental: Cells were plated at 300,000/T75 flask and cells were split twice weekly. […] Cells were plated at 250,000 cells/T75 flask and split twice weekly.
Norepinephrine (NE) Uptake Assay
On day 1, cells were plated at 3,000 cells/well in growth medium and maintained in a cell incubator (37° C., 5% CO2). On day 2, growth medium was replaced with 200 μl of assay buffer (25 mM HEPES; 120 mM NaCl; 5 mM KCl; 2.5 mM CaCl2; 1.2 mM MgSO4; 2 mg/ml glucose (pH 7.4, 37° C.)) containing 0.2 mg/ml ascorbic acid and 10 μM pargyline. Plates containing cells with 200 μl of assay buffer were equilibrated for 10 minutes at 37° C. prior to addition of compounds. A stock solution of desipramine was prepared in DMSO (10 mM) and delivered to triplicate wells containing cells for a final test concentration of 1 μM. Data from these wells were used to define non-specific NE uptake (minimum NE uptake). Test compounds were prepared in DMSO (10 mM) and diluted in assay buffer according to test range (1 to 10,000 nM). Twenty-five microliters of assay buffer (maximum NE uptake) or test compound were added directly to triplicate wells containing cells in 200 μl of assay buffer. The cells in assay buffer with test compounds were incubated for 20 minutes at 37° C. […] The reaction was terminated by decanting the supernatant from the plate. The plates containing cells were washed twice with 200 μl assay buffer (37° C.) to remove free radioligand. The plates were then inverted, left to dry for 2 minutes, then reinverted and air-dried for an additional 10 minutes. The cells were lysed in 25 μl of 0.25 N NaOH solution (4° C.), placed on a shake table and vigorously shaken for 5 minutes. After cell lysis, 75 μl of scintillation cocktail was added to each well and the plates were sealed with film tape. The plates were returned to the shake table and vigorously shaken for a minimum of 10 minutes to ensure adequate partitioning of organic and aqueous solutions. The plates were counted in a Wallac Microbeta counter (PerkinElmer) to collect the raw cpm data.
For each experiment, a data stream of cpm values collected from the Wallac Microbeta counter was downloaded to a Microsoft Excel statistical application program. Calculations of EC50 values were made using the transformed-both-sides logistic dose response program written by Wyeth Biometrics Department.

T1 sequence (P23975 whole entry): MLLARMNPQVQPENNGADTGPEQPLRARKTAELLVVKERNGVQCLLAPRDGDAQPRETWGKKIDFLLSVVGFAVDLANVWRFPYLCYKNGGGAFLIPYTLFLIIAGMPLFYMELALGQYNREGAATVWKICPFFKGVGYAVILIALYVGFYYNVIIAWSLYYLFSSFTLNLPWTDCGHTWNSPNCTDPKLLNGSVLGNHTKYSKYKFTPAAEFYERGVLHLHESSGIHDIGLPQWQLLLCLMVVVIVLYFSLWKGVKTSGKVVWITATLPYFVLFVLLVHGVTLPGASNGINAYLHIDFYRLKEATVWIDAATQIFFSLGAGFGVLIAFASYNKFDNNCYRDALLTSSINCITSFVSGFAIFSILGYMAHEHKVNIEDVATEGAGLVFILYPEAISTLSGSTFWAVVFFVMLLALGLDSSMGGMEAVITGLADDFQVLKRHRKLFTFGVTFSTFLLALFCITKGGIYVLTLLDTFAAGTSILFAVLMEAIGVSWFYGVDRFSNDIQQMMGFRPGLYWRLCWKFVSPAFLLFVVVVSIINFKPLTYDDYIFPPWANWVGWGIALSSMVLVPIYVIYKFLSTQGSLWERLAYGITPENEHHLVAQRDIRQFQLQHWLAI

Compound	% Inhibition @ 1 μM (hNET)
1-[1-[4-methoxy-3-(trifluoromethoxy)phenyl]-2-(4-methylpiperazin-1-yl)ethyl]cyclohexanoldihydrochloride [Example 403]	48%

same assay, conditions: 1 μM test compound, [3H]NE uptake, read-out: % Inhibition @ 1 μM (hNET)

Compound	inhibition at 1 µM
OC1(C(CN2CCNCC2)c2cccc(-c3ccc(Cl)cc3)c2)CCCCC1 (stereo not shown) [Example 137, 1-[1-(4′-chloro-1,1′-biphenyl-3-yl)-2-piperazin-1-ylethyl]cyclohexanol dihydrochloride]	41%
CN1CCN(CC(c2ccc(OCCc3ccc(F)cc3)cc2)C2(O)CCCCC2)CC1 (stereo not shown) [Example 463, 1-[1-{4-[2-(4-fluorophenyl)ethoxy]phenyl}-2-(4-methylpiperazin-1-yl)ethyl]cyclohexanol dihydrochloride]	69%
CC1(C)CCCC1(O)C(CN1CCNCC1)c1cccc(OC(F)(F)F)c1 (stereo not shown) [Example 396, 2,2-dimethyl-1-{2-piperazin-1-yl-1-[3-(trifluoromethoxy)phenyl]ethyl}cyclopentanol dihydrochloride]	33%
CN1CCN(CC(c2ccc(OCc3ccc4ccccc4c3)cc2)C2(O)CCCCC2)CC1 (stereo not shown) [Example 433, 1-{2-(4-methylpiperazin-1-yl)-1-[4-(2-naphthylmethoxy)phenyl]ethyl}cyclohexanol]	49%
OC1(C(CN2CCNCC2)c2ccc(OCc3ccccc3)c(C(F)(F)F)c2)CCCCC1 (stereo not shown) [Example 263, 1-{1-[4-(benzyloxy)-3-(trifluoromethyl)phenyl]-2-piperazin-1-ylethyl}cyclohexanol dihydrochloride]	31%
OC1(C(CN2CCNCC2)c2ccc(OCc3cccc(C(F)(F)F)c3)cc2)CCCCC1 (stereo not shown) [Example 438, 1-[2-piperazin-1-yl-1-(4-{[3-(trifluoromethyl)benzyl]oxy}phenyl)ethyl]cyclohexanol dihydrochloride]	69%
CN1CCN(CC(c2ccc(Oc3cccc4ccccc34)cc2)C2(O)CCCCC2)CC1 (stereo not shown) [Example 399, 1-{2-(4-methylpiperazin-1-yl)-1-[4-(1-naphthyloxy)phenyl]ethyl}cyclohexanol dihydrochloride]	17%
COc1ccc(C(CN2CCNCC2)C2(O)CCCCC2)cc1-c1ccc(C(F)(F)F)cc1 (stereo not shown) [Example 253, 1-{1-[6-methoxy-4′-(trifluoromethyl)-1,1′-biphenyl-3-yl]-2-piperazin-1-ylethyl}cyclohexanol dihydrochloride]	19%
OC1([C@H](CN2CCNCC2)c2ccc(OCc3ccccc3)c(Cl)c2)CCCCC1 [Example 324, 1-{(1S)-1-[4-(benzyloxy)-3-chlorophenyl]-2-piperazin-1-ylethyl}cyclohexanol dihydrochloride]	98.4%
COc1ccc(C(CN2CCNCC2)C2(O)CCCCC2)cc1OC(F)(F)F (stereo not shown) [Example 402, 1-{1-[4-methoxy-3-(trifluoromethoxy)phenyl]-2-piperazin-1-ylethyl}cyclohexanol dihydrochloride]	42%
OC1(C(CN2CCNCC2)c2ccc(OCc3ccccc3)cc2)CCCCC1 (stereo not shown) [Example 27, 1-{1-[4-(benzyloxy)phenyl]-2-piperazin-1-ylethyl}cyclohexanol dihydrochloride]	82%
COc1cccc(COc2ccc(C(CN3CCNCC3)C3(O)CCCCC3)cc2Cl)c1 (stereo not shown) [Example 454, 1-(1-{3-chloro-4-[(3-methoxybenzyl)oxy]phenyl}-2-piperazin-1-ylethyl)cyclohexanol dihydrochloride]	99%
CN1CCN(CC(c2ccc(OCc3ccc(C(F)(F)F)cc3)c(F)c2)C2(O)CCCCC2)CC1 (stereo not shown) [Example 416, 1-[1-(3-fluoro-4-{[4-(trifluoromethyl)benzyl]oxy}phenyl)-2-(4-methylpiperazin-1-yl)ethyl]cyclohexanol dihydrochloride]	91%
COc1cc(C(CN2CCNCC2)C2(O)CCCCC2)cc(Br)c1OCc1ccccc1 (stereo not shown) [Example 390, 1-{1-[4-(benzyloxy)-3-bromo-5-methoxyphenyl]-2-piperazin-1-ylethyl}cyclohexanol dihydrochloride]	6%
CC[C@@H]1CN(C[C@H](c2cccc(OC(F)(F)F)c2)C2(O)CCCCC2)CCN1C [Example 352, 1-{(1S)-2-[(3R)-3-ethyl-4-methylpiperazin-1-yl]-1-[3-(trifluoromethoxy)phenyl]ethyl}cyclohexanol dihydrochloride]	68%
CN1CCN(CC(c2ccc(O)c(OC(F)(F)F)c2)C2(O)CCCCC2)CC1 (stereo not shown) [Example 401, 4-[1-(1-hydroxycyclohexyl)-2-(4-methylpiperazin-1-yl)ethyl]-2-(trifluoromethoxy)phenol dihydrochloride]	25%
OC1(C(CN2CCNCC2)c2ccc(OCCc3ccc(F)cc3)cc2)CCCCC1 (stereo not shown) [Example 462, 1-(1-{4-[2-(4-fluorophenyl)ethoxy]phenyl}-2-piperazin-1-ylethyl)cyclohexanol dihydrochloride]	47%
CN1CCN(CC(c2ccc(OCc3ccc(Br)cc3F)cc2)C2(O)CCCCC2)CC1 (stereo not shown) [Example 435, 1-[1-{4-[(4-bromo-2-fluorobenzyl)oxy]phenyl}-2-(4-methylpiperazin-1-yl)ethyl]cyclohexanol dihydrochloride]	85%
OC1(C(CN2CCNCC2)c2ccc(-c3ccc(Cl)cc3)cc2)CCCCC1 (stereo not shown) [Example 172, 1-[1-(4′-chloro-1,1′-biphenyl-4-yl)-2-piperazin-1-ylethyl]cyclohexanol dihydrochloride]	55%
CN1CCN(C[C@@H](c2ccc(OCc3ccccc3)c(Cl)c2)C2(O)CCCCC2)CC1 [Example 325, 1-[(1R)-1-[4-(benzyloxy)-3-chlorophenyl]-2-(4-methylpiperazin-1-yl)ethyl]cyclohexanol dihydrochloride]	93.9%
OC1(C(CN2CCNCC2)c2ccc(OCCc3cccc4ccccc34)cc2)CCCCC1 (stereo not shown) [Example 464, 1-(1-{4-[2-(1-naphthyl)ethoxy]phenyl}-2-piperazin-1-ylethyl)cyclohexanol dihydrochloride]	33%
COc1ccc(C(CN2CCNCC2)C2(O)CCCCC2)cc1-c1ccccc1 (stereo not shown) [Example 254, 1-[1-(6-methoxy-1,1′-biphenyl-3-yl)-2-piperazin-1-ylethyl]cyclohexanol dihydrochloride]	29%
COc1ccc(C(CN2CCNCC2)C2(O)CCCCC2)cc1-c1cccc(OC(F)(F)F)c1 (stereo not shown) [Example 251, 1-{1-[6-methoxy-3′-(trifluoromethoxy)-1,1′-biphenyl-3-yl]-2-piperazin-1-ylethyl}cyclohexanol dihydrochloride]	47%
OC1(C(CN2CCNCC2)c2ccc(OC(F)(F)F)cc2)CCCCC1 (stereo not shown) [Example 28, 1-{2-piperazin-1-yl-1-[4-(trifluoromethoxy)phenyl]ethyl}cyclohexanol dihydrochloride]	80%

same assay, conditions: 10 μM test compound (stated in the cell), [3H]NE uptake

Compound	inhibition at 10 µM
CN1CCN(CC(c2ccc(-c3cccc(Cl)c3)cc2)C2(O)CCC2)CC1 (stereo not shown) [Example 294, 1-[1-(3′-chloro-1,1′-biphenyl-4-yl)-2-(4-methylpiperazin-1-yl)ethyl]cyclobutanol dihydrochloride]	27.2%
OC1(C(CN2CCNCC2)c2ccc(Oc3ccccc3)cc2)CCCCC1 (stereo not shown) [Example 307, 1-[1-(4-phenoxyphenyl)-2-piperazin-1-ylethyl]cyclohexanol dihydrochloride]	44.5%

same assay, conditions: [3H]NE uptake, test range 1 to 10,000 nM

Compound	EC50
OC1(C(CN2CCNCC2)c2ccc(OCc3ccccc3)cc2)CCCCC1 (stereo not shown) [Example 27, 1-{1-[4-(benzyloxy)phenyl]-2-piperazin-1-ylethyl}cyclohexanol dihydrochloride]	470 nM
